Reference: article PMC8739753 (ACS catalysis, 2021)
Values after ≈ are worked out from the molar mass of the structure shown. Values joined by “and” are separate entries in the source; they are usually repeats but may differ in a detail not shown here. Equal values may be shown once.

Tests used:
[1] = tested on: vancomycin-resistant Enterococcus; assay: Antimicrobial testing; assay type: cell-based; details: for MIC: Enterococcus
S. pneumonia ATCC 49619 = assay: Antimicrobial testing; assay type: cell-based
B. anthracis 34f2 = assay type: cell-based; details: comparable to commercial antibiotic erythromycin
E. coli TolC = assay type: cell-based
TamL enzyme = TamL enzyme (Streptomyces sp. 307-9, UniProt D3Y1I2); assay: Isothermal titration calorimetry with TamL
TamI WT and mutants [2] = assay: Substrate-induced heme spin shift binding, several TamI P450s
TamI WT and mutants [3] = details: range over WT and all variants tested
TamI WT [4] = assay: Substrate-induced heme spin shift binding, TamI WT; details: TamI WT (parent enzyme)
TamI WT [5] = assay: Total turnover number, TamI WT; details: compound as substrate
[6] = tested on: CC1=CC[C@H]2O[C@]1(C)O[C@H]([C@H](C)/C=C(C)/C=C/C(O)=C1/C(=O)CNC1=O)[C@H]2C; assay: purified protein, by the assay type
TamI biocatalysts = assay: In vitro analytical enzymatic reactions with TamI biocatalysts; assay type: biochemical, Streptomyces sp. 307-9; details: compound as substrate
[7] = substrate: CC(C=CC(O)=C1C(=O)CNC1=O)=CC(C)C1OC2(C)OC(C(O)C=C2C)C1C; assay: purified protein, by the assay type; details: other: compound as substrate; P450 TamI WT
[8] = substrate: CC1=CC(=O)[C@H]2O[C@]1(C)O[C@H]([C@H](C)/C=C(C)/C=C/C(O)=C1/C(=O)CNC1=O)[C@H]2C; assay: purified protein, by the assay type; details: other: compound as substrate; P450 TamI WT
[9] = substrate: CC(/C=C/C(O)=C1/C(=O)CNC1=O)=C\[C@@H](C)[C@H]1O[C@@]2(C)O[C@H](C(=O)[C@@H]3O[C@@]32C)[C@@H]1C; assay: purified protein, by the assay type; details: other: compound as substrate; P450 TamI WT

Question: For `O=C(O)c1cn(C2CC2)c2cc(N3CCNCC3)c(F)cc2c1=O` [ciprofloxacin, reference compound], which MIC [1] is on record?
Answer: Its MIC is over 100 µM.

Question: What about the MIC (S. pneumonia ATCC 49619) of the same molecule?
Answer: Its MIC is 1.56 µM (≈ 0.517 µg/mL).

Question: What does the source list for `CC1=CC[C@H]2O[C@]1(C)O[C@H]([C@H](C)/C=C(C)/C=C/C(O)=C1/C(=O)CNC1=O)[C@H]2C` [compound 1, tirandamycin C]?
Answer: activity against B. anthracis 34f2 (in words) (B. anthracis 34f2): strong activity; activity against E. coli TolC (in words) (E. coli TolC): relatively weak activity; MIC [1]: 25 µM (≈ 9.69 µg/mL); MIC (S. pneumonia ATCC 49619): 12.5 µM (≈ 4.84 µg/mL); activity against S. pneumonia ATCC 49619 (in words) (S. pneumonia ATCC 49619): enhanced activity

Question: Which results are given for `CC(C=CC(O)=C1C(=O)CNC1=O)=CC(C)C1OC2(C)OC(C(O)C=C2C)C1C` (stereo not drawn) [compound 2, tirandamycin E]?
Answer: MIC [1]: > 100 µM; Kd (TamL enzyme): 2.26 µM; MIC (S. pneumonia ATCC 49619): > 100 µM; spin shift (TamI WT and mutants [2]; the other P450s (than L101A_L295I) including the parent enzyme): no spin shift was observed

Question: With `CC1=CC(=O)[C@H]2O[C@]1(C)O[C@H]([C@H](C)/C=C(C)/C=C/C(O)=C1/C(=O)CNC1=O)[C@H]2C` [compound 3, tirandamycin D] as the molecule, how does the “activity against B. anthracis 34f2 (in words)” value (B. anthracis 34f2) read?
Answer: Its value is “strong activity”.

Question: What about the “TTN (mol substrate consumed/mol P450)” value (TamI WT and mutants [3]) of the same molecule?
Answer: The value was 313–340.

Question: What about the MIC [1] of the same molecule?
Answer: The MIC was over 100 µM.

Question: And the MIC (S. pneumonia ATCC 49619)?
Answer: Its MIC is 12.5 µM (≈ 5.02 µg/mL).

Question: And the “activity against S. pneumonia ATCC 49619 (in words)” value (S. pneumonia ATCC 49619)?
Answer: The value was “enhanced activity”.

Question: And the Kd (TamI WT and mutants [2]; heme spin shift, range over WT and all variants tested)?
Answer: Its Kd is 6.89 to 8.32 µM.

Question: Which Kd (TamI WT [4]) does the source give for `CC(/C=C/C(O)=C1/C(=O)CNC1=O)=C\[C@@H](C)[C@H]1O[C@@]2(C)O[C@H](C(=O)[C@@H]3O[C@@]32C)[C@@H]1C` [compound 4, Tirandamycin A] here?
Answer: Its Kd is “no shift observed”.

Question: What about the “activity against VRE (in words)” value [1] of the same molecule?
Answer: Its value is “strongest activity”.

Question: What about the MIC [1] of the same molecule?
Answer: Its MIC is 6.25 µM (≈ 2.61 µg/mL).

Question: What about the “TTN (mol substrate consumed/mol P450)” value (TamI WT [5]) of the same molecule?
Answer: Its value is 143.

Question: What about the MIC (S. pneumonia ATCC 49619) of the same molecule?
Answer: The MIC was 25 µM (≈ 10.4 µg/mL).

Question: What does the source list for `CC[C@H]1OC(=O)[C@H](C)[C@@H](O[C@H]2C[C@@](C)(OC)[C@@H](O)[C@H](C)O2)[C@H](C)[C@@H](O[C@@H]2O[C@H](C)C[C@H](N(C)C)[C@H]2O)[C@](C)(O)C[C@@H](C)C(=O)[C@H](C)[C@@H](O)[C@]1(C)O` [erythromycin, reference compound]?
Answer: MIC [1]: 3.13 µM (≈ 2.3 µg/mL); MIC (S. pneumonia ATCC 49619): 0.195 µM (≈ 0.143 µg/mL)

Question: Which MIC [1] does the source give for `CNC(=O)[C@@H](C)[C@H]1C(=O)/C(=C(O)/C=C/C(C)=C/[C@@H](C)[C@H]2O[C@@]3(C)O[C@H](C=C[C@@]34CO4)[C@@H]2C)C(=O)N1[C@@H]1CC[C@H](O)[C@H](C)O1` [streptolydigin, reference compound] here?
Answer: Its MIC is over 100 µM.

Question: And the MIC (S. pneumonia ATCC 49619)?
Answer: The MIC was over 100 µM.

Question: Which Km [6] does the source give for P450 TamI WT (Streptomyces sp. 307-9) here?
Answer: The Km was 16.0 ± 2.6 µM.

Question: And the kcat [6]?
Answer: Its kcat is 0.497 ± 0.0317 s⁻¹.

Question: What about the kcat/Km [6] of the same molecule?
Answer: The kcat/Km was 31200 M⁻¹ s⁻¹.

Question: With tirandamycin O’ [compound 10] as the molecule, how does the “oxidative activity / product formation with TamI biocatalysts” value (TamI biocatalysts) read?
Answer: The value was “failed to yield products”.

B1: P450 TamI WT (Streptomyces sp. 307-9) (protein)
chain: MPMLQDSVPLELDDAFMQDPHSVYARLNAEGSAHRVMMPPGVPVCGGLPVWLITGYEEVRSALADPRLSTDLNRTDRLFAQNEPDRNKRGAFSSALATHMLHSDPPDHTRLRKLVNKAFTSRAIEKLRPEIEQITGELLAALPDEDPVDLLDAFAFPLPIRVICLLLGVPLEEQENFKSWSKALVSGDSPAATAAASTAMIEYLGDLIERKRRTPTDDVLAALVSARDVDDRLTETELVSMAFLLFIGGHETTVNTLGNGTLHLMRNLDQWEALRQDRSLLPGAVEEFLRLESPLKHATFRCATEDLRIGDTAIPAGDFVLLALASANRDPERFGDPHTLDVRRPTGGHVAFGHGIHYCLGAPLARMEAQVAFGVLLDTFPAMRLAVDPEDMRWRTSTLIRGLHSLPVRLNRP
Question: Which results are given for B1?
Answer: Km [7]: 108.5 ± 25.9 µM; kcat [7]: 0.000667 ± 0.000167 s⁻¹; kcat/Km [7]: 5 M⁻¹ s⁻¹; Km [8]: 36.5 ± 7.1 µM; kcat [8]: 0.113 ± 0.00833 s⁻¹; kcat/Km [8]: 3170 M⁻¹ s⁻¹; Km [9]: 8.2 ± 1.0 µM; kcat [9]: 0.0006 ± 1.67e-05 s⁻¹; kcat/Km [9]: 67 M⁻¹ s⁻¹ and 73.3 M⁻¹ s⁻¹
